According to ChEMBL document CHEMBL1158954, “Anti-AIDS agents, 3. Inhibitory effects of colchicine derivatives on HIV replication in H9 lymphocyte cells” (J Nat Prod, 1991):

Experiments:
H9 (Homo sapiens) = assay: microbe, parasite or virus in culture; conditions: H9, 72 h
H9 = assay: Cytotoxicity against human H9 cells; type: ADME, cell-based

Compound	IC50 (H9 (Homo sapiens))	EC50 (H9)
COc1cc2c(c(OC)c1O)-c1ccc(SC)c(=O)cc1[C@@H](NC(C)=O)CC2	52 nM	47 nM
COc1cc(/C=C/C(=O)N[C@H]2CCc3cc(OC)c(OC)c(OC)c3-c3ccc(OC)c(=O)cc32)cc(OC)c1O	180 nM	180 nM
COc1cc(C(=O)N[C@H]2CCc3cc(OC)c(OC)c(OC)c3-c3ccc(OC)c(=O)cc32)cc(OC)c1OC	40 nM	20 nM
COc1cc(/C=C/C(=O)N[C@H]2CCc3cc(OC)c(OC)c(OC)c3-c3ccc(OC)c(=O)cc32)cc(OC)c1OC	5.5 nM	5.5 nM
COc1cc2c(c(OC)c1OC)-c1ccc(N(C)C)c(=O)cc1[C@@H](NC(C)=O)CC2	85 nM	85 nM
COc1cc(C(=O)N[C@H]2CCc3cc(OC)c(OC)c(OC)c3-c3ccc(OC(=O)c4cc(OC)c(OC)c(OC)c4)c(=O)cc32)cc(OC)c1OC		1400 nM
COc1cc2c(c(OC)c1OC)-c1ccc(O)c(=O)cc1[C@@H](NC(=O)C(F)(F)F)CC2	200 nM	570 nM
COc1cc2c(c(OC)c1O)-c1ccc(O)c(=O)cc1[C@@H](NC(C)=O)CC2	270 nM	270 nM
COc1cc2c(c(OC)c1OC)-c1ccc(N(C)C)c(=O)cc1[C@@H](N)CC2	1600 nM	940 nM
CC(=O)N[C@H]1CCc2cc(O)c(O)c(O)c2-c2ccc(O)c(=O)cc21	1200 nM	1200 nM
COc1cc2c(c(OC)c1OC)-c1ccc(OC)c(=O)cc1[C@@H](NC(=O)/C=C/c1ccc(O)c(O)c1)CC2	290 nM	290 nM
COc1cc2c(c(OC)c1OC)-c1ccc(=O)c(OC)cc1[C@@H](N)CC2	2800 nM	2800 nM
N[C@H]1CCc2cc(O)c(O)c(O)c2-c2ccc(=O)c(O)cc21	50000 nM	30000 nM
COc1cc2c(c(OC)c1O)-c1ccc(SC)c(=O)cc1[C@@H](N)CC2	1400 nM	1100 nM
COc1cc2c(c(OC)c1OC)-c1ccc(O)c(=O)cc1[C@@H](N)CC2	1200 nM	1300 nM
COc1cc2c(c(OC)c1OC)-c1ccc(=O)c(N(C)C)cc1[C@@H](N)CC2	> 2700 nM	> 2700 nM
COc1cc2c(c(OC)c1OC)-c1ccc(OC)c(=O)cc1[C@@H](NC(=O)C(F)(F)F)CC2	6.6 nM	8.8 nM
COc1cc2c(c(OC)c1OC)-c1ccc(=O)c(OC)cc1[C@@H](NC(=O)C(F)(F)F)CC2	660 nM	660 nM
O=C(N[C@H]1CCc2cc(O)c(O)c(O)c2-c2ccc(=O)c(O)cc21)C(F)(F)F	23000 nM	23000 nM
COc1cc2c(c(OC)c1O)-c1ccc(OC)c(=O)cc1[C@@H](NC(C)=O)CC2 [2-DESMETHYLCOLCHICIN]	260 nM	260 nM
COc1cc2c(c(OC)c1OC)-c1ccc(OC)c(=O)cc1[C@@H](NC(C)=O)CC2 [COLCHICINE]	18 nM	10 nM
